Data published in ChEMBL document CHEMBL1201862, “PubChem BioAssay data set” (2004).
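Interpolation was linear, between the two tested concentrations surrounding the appropriate level; five concentrations were tested over 48 hours in 96-well plates. GI50: concentration for 50% inhibition of growth.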 Activity calls are given as the source filed them. No stated cut-off is given here; in the data, active = GI50 up to about 1.1 µM and inactive = higher.

How the values were obtained:
Assay in all cases: NCI tumour cell line growth inhibition, 48 h
M14 = tested on: M14
U-251 = tested on: U-251
DU-145 = tested on: DU-145
K562 = tested on: K562
OVCAR-8 = tested on: OVCAR-8
EKVX = tested on: EKVX
Malme-3M = tested on: Malme-3M
OVCAR-5 = tested on: OVCAR-5
RPMI-8226 = tested on: RPMI-8226
MDA-MB-231 = tested on: MDA-MB-231
NCI-H23 = tested on: NCI-H23
LOX IMVI = tested on: LOX IMVI
UACC-62 = tested on: UACC-62
SK-MEL-5 = tested on: SK-MEL-5
SN12C = tested on: SN12C
IGROV-1 = tested on: IGROV-1
OVCAR-4 = tested on: OVCAR-4
NCI-H522 = tested on: NCI-H522
SF-268 = tested on: SF-268
HT-29 = tested on: HT-29

Measured: GI50

CC1(C)OC(CCC#N)CN1C(=O)OCc1ccccc1 (configuration not stated)
inactive: M14 > 100 µM | U-251 > 100 µM | DU-145 > 100 µM | K562 > 100 µM | OVCAR-8 > 100 µM | EKVX > 100 µM | Malme-3M 49 µM | OVCAR-5 > 100 µM | RPMI-8226 > 100 µM | MDA-MB-231 > 100 µM | NCI-H23 > 100 µM | LOX IMVI > 100 µM | UACC-62 > 100 µM | SK-MEL-5 68.4 µM | SN12C > 10 µM | IGROV-1 > 100 µM | OVCAR-4 > 100 µM | NCI-H522 75.2 µM

CC(C)(CO)CNc1nc(N)nc(Cl)c1/C=N/O
inactive: U-251 48.6 µM | DU-145 31.4 µM | K562 13.9 µM | OVCAR-8 31.6 µM | EKVX 17.5 µM | Malme-3M 57.4 µM | OVCAR-5 41.2 µM | SF-268 8.91 µM | RPMI-8226 15.2 µM | MDA-MB-231 25.8 µM | NCI-H23 3.45 µM | LOX IMVI 12.1 µM | UACC-62 31.8 µM | SK-MEL-5 5.78 µM | SN12C 72.4 µM | HT-29 42.1 µM | IGROV-1 13 µM | OVCAR-4 34 µM | NCI-H522 25.8 µM

COc1ccc(C(=O)c2[nH]c(Nc3cc(C)ccn3)c(C(=S)Nc3ccccc3)c2N)cc1
inactive: M14 20.5 µM | U-251 15.3 µM | DU-145 36.6 µM | K562 25.1 µM | OVCAR-8 17.2 µM | EKVX 22.3 µM | Malme-3M 14.6 µM | OVCAR-5 26.1 µM | SF-268 21.9 µM | RPMI-8226 13.3 µM | MDA-MB-231 20 µM | NCI-H23 21.9 µM | LOX IMVI 18.7 µM | UACC-62 12.9 µM | SN12C 18.2 µM | HT-29 17.5 µM | IGROV-1 12.2 µM | OVCAR-4 10.9 µM | NCI-H522 13.8 µM

CCOC(=O)c1c(C)nc2c(c1-c1cn(-c3ccccc3)nc1-c1ccccc1)C(=O)c1ccccc1-2
inactive: M14 > 100 µM | U-251 > 100 µM | DU-145 > 100 µM | K562 > 100 µM | OVCAR-8 > 100 µM | EKVX > 100 µM | Malme-3M > 100 µM | OVCAR-5 > 100 µM | SF-268 > 100 µM | MDA-MB-231 > 100 µM | NCI-H23 > 100 µM | LOX IMVI > 100 µM | UACC-62 > 100 µM | SK-MEL-5 > 100 µM | SN12C > 100 µM | HT-29 13.8 µM | IGROV-1 > 100 µM | OVCAR-4 > 100 µM | NCI-H522 > 100 µM

COC1=C(Br)C(O)C2(C=C1Br)CC(C(=O)NCCCCNC(=O)C1=NOC3(C=C(Br)C(OC)=C(Br)C3O)C1)=NO2 (configuration not stated)
inactive: M14 15.5 µM | U-251 25.8 µM | DU-145 31.6 µM | K562 16.3 µM | OVCAR-8 20.3 µM | Malme-3M 16.4 µM | OVCAR-5 50.4 µM | SF-268 13.5 µM | RPMI-8226 8.99 µM | MDA-MB-231 22.3 µM | NCI-H23 40.5 µM | LOX IMVI 17 µM | UACC-62 31.8 µM | SK-MEL-5 11.9 µM | SN12C 25.6 µM | HT-29 15.9 µM | IGROV-1 11.7 µM | OVCAR-4 54.3 µM | NCI-H522 11.3 µM

COC(=O)c1ccc(Cc2cc(Cc3ccc(C(=O)OC)cc3)cc(Cc3ccc(C(=O)OC)cc3)c2)cc1
inactive: M14 > 25 µM | U-251 > 25 µM | DU-145 > 25 µM | K562 > 25 µM | OVCAR-8 > 25 µM | EKVX > 25 µM | Malme-3M > 25 µM | OVCAR-5 > 25 µM | SF-268 > 25 µM | RPMI-8226 > 25 µM | MDA-MB-231 > 25 µM | LOX IMVI > 25 µM | UACC-62 > 25 µM | SN12C > 25 µM | HT-29 > 25 µM | IGROV-1 > 25 µM | OVCAR-4 16.5 µM | NCI-H522 > 25 µM

NC(=O)C[S+]([O-])CC(N)C(=O)O (configuration not stated)
inactive: M14 > 100 µM | U-251 > 100 µM | DU-145 > 100 µM | K562 > 100 µM | OVCAR-8 > 100 µM | EKVX > 100 µM | Malme-3M > 100 µM | OVCAR-5 > 100 µM | SF-268 > 100 µM | MDA-MB-231 > 100 µM | NCI-H23 > 100 µM | LOX IMVI > 100 µM | UACC-62 > 100 µM | SK-MEL-5 > 100 µM | SN12C > 100 µM | HT-29 > 100 µM | IGROV-1 > 100 µM | OVCAR-4 > 100 µM | NCI-H522 > 100 µM

CCCCc1ccc(Nc2nc(Cl)c3ncn(C4CC(Oc5ccc(C)cc5)C(COc5ccc(C)cc5)O4)c3n2)cc1 (configuration not stated)
inactive: M14 > 100 µM | DU-145 > 100 µM | K562 > 100 µM | OVCAR-8 > 100 µM | EKVX > 100 µM | Malme-3M > 100 µM | OVCAR-5 > 100 µM | SF-268 > 100 µM | RPMI-8226 > 100 µM | MDA-MB-231 > 100 µM | NCI-H23 > 100 µM | LOX IMVI > 100 µM | UACC-62 > 100 µM | SK-MEL-5 > 100 µM | SN12C > 100 µM | HT-29 > 100 µM | IGROV-1 > 100 µM | NCI-H522 > 100 µM

O=C(O)Cc1cccc2c1OC(c1ccccc1)C(C(=O)c1ccccc1)C2=O (configuration not stated)
inactive: U-251 40.9 µM | DU-145 69 µM | K562 32.7 µM | OVCAR-8 46.6 µM | EKVX 36.2 µM | Malme-3M 63.4 µM | OVCAR-5 > 100 µM | SF-268 44 µM | RPMI-8226 33.6 µM | MDA-MB-231 32.7 µM | NCI-H23 29.5 µM | LOX IMVI 83.8 µM | UACC-62 13.4 µM | SK-MEL-5 > 100 µM | SN12C 45.8 µM | HT-29 > 10 µM | IGROV-1 38.7 µM | NCI-H522 43.2 µM

CCCCCC(C)(C)CCC(=O)OC1OC(COC2OC(COC3OC(CO)C(O)C(O)C3O)C(O)C(O)C2O)C(O)C(O)C1O (configuration not stated)
inactive: M14 > 100 µM | U-251 > 100 µM | DU-145 > 100 µM | K562 > 100 µM | OVCAR-8 > 100 µM | EKVX > 100 µM | Malme-3M > 100 µM | OVCAR-5 > 100 µM | SF-268 > 100 µM | RPMI-8226 > 100 µM | MDA-MB-231 > 100 µM | NCI-H23 > 100 µM | LOX IMVI > 100 µM | UACC-62 > 100 µM | SK-MEL-5 > 100 µM | SN12C > 100 µM | HT-29 > 100 µM | IGROV-1 > 100 µM | NCI-H522 > 100 µM

Cn1c(=O)c2nc(CCNC(=O)c3ccccc3)[nH]c2n(C)c1=O
inactive: M14 > 100 µM | U-251 > 100 µM | DU-145 > 100 µM | K562 > 100 µM | OVCAR-8 > 100 µM | EKVX > 100 µM | Malme-3M > 100 µM | OVCAR-5 > 100 µM | SF-268 > 100 µM | MDA-MB-231 > 100 µM | NCI-H23 > 100 µM | LOX IMVI > 100 µM | UACC-62 > 100 µM | SK-MEL-5 > 100 µM | SN12C > 100 µM | HT-29 > 100 µM | IGROV-1 > 100 µM | OVCAR-4 > 100 µM | NCI-H522 > 100 µM

O=C(Cn1c2ccc(Br)cc2c2nc3ccccc3nc21)Nc1ccccc1
inactive: M14 30.1 µM | U-251 24 µM | DU-145 59.2 µM | K562 38.8 µM | OVCAR-8 15.1 µM | Malme-3M 28.6 µM | OVCAR-5 47 µM | SF-268 45.2 µM | RPMI-8226 37.7 µM | MDA-MB-231 13.3 µM | NCI-H23 28 µM | LOX IMVI 15.8 µM | UACC-62 48.1 µM | SK-MEL-5 34.6 µM | SN12C 42.6 µM | HT-29 24.8 µM | IGROV-1 15.3 µM | OVCAR-4 20.9 µM | NCI-H522 21.6 µM

CC(=O)OCCOCn1c2c(c(=O)[nH]c1=O)CCC2
inactive: M14 > 100 µM | U-251 > 100 µM | DU-145 > 100 µM | K562 > 100 µM | OVCAR-8 > 100 µM | EKVX > 100 µM | Malme-3M > 100 µM | OVCAR-5 > 100 µM | SF-268 > 100 µM | RPMI-8226 > 100 µM | MDA-MB-231 > 100 µM | NCI-H23 > 100 µM | LOX IMVI > 100 µM | SK-MEL-5 > 100 µM | SN12C > 100 µM | HT-29 > 100 µM | IGROV-1 > 100 µM | OVCAR-4 > 100 µM | NCI-H522 > 100 µM

CSc1nc2c(N)ncnc2n1C
inactive: M14 > 100 µM | U-251 > 100 µM | DU-145 > 100 µM | K562 > 100 µM | OVCAR-8 > 100 µM | EKVX > 100 µM | Malme-3M > 100 µM | OVCAR-5 > 100 µM | SF-268 > 100 µM | RPMI-8226 > 100 µM | MDA-MB-231 > 100 µM | LOX IMVI > 100 µM | UACC-62 > 100 µM | SK-MEL-5 > 100 µM | SN12C > 100 µM | HT-29 > 100 µM | IGROV-1 > 100 µM | OVCAR-4 > 100 µM | NCI-H522 > 100 µM
